According to ChEMBL document CHEMBL4813990, “One-step modification to identify dual-inhibitors targeting both pancreatic triglyceride lipase and Niemann-Pick C1-like 1” (Eur J Med Chem, 2021):
The source made the active and inactive calls. The rule behind the calls is not given here.

Columns and labels:
[1] = test system: Caco-2; assay: Inhibition of NPC1L1 mRNA expression in human Caco-2 cells at 100 uM incubated for 24 hrs by qRT-PCR analysis; assay type: functional, cell-based
[2] = test system: Caco-2; assay: Inhibition of NPC1L1 expression in human Caco-2 cells at 0.1 to 100 uM incubated for 24 hrs by Western blot analysis; assay type: functional, cell-based; settings: dose 0.1-100 µM
[3] = test system: Caco-2; assay: Inhibition of PTL mRNA expression in human Caco-2 cells at 100 uM incubated for 24 hrs by qRT-PCR analysis; assay type: functional, cell-based
[4] = target: T1, NPC1-like intracellular cholesterol transporter 1 (Homo sapiens) (UniProt Q9UHC9); assay: Inhibition of NPC1L1 in human Caco-2 cells assessed as decrease in uptake of cholesterol-d6 at 50 uM by HPLC-MS analysis; assay type: cell-based
T1 sequence (whole entry): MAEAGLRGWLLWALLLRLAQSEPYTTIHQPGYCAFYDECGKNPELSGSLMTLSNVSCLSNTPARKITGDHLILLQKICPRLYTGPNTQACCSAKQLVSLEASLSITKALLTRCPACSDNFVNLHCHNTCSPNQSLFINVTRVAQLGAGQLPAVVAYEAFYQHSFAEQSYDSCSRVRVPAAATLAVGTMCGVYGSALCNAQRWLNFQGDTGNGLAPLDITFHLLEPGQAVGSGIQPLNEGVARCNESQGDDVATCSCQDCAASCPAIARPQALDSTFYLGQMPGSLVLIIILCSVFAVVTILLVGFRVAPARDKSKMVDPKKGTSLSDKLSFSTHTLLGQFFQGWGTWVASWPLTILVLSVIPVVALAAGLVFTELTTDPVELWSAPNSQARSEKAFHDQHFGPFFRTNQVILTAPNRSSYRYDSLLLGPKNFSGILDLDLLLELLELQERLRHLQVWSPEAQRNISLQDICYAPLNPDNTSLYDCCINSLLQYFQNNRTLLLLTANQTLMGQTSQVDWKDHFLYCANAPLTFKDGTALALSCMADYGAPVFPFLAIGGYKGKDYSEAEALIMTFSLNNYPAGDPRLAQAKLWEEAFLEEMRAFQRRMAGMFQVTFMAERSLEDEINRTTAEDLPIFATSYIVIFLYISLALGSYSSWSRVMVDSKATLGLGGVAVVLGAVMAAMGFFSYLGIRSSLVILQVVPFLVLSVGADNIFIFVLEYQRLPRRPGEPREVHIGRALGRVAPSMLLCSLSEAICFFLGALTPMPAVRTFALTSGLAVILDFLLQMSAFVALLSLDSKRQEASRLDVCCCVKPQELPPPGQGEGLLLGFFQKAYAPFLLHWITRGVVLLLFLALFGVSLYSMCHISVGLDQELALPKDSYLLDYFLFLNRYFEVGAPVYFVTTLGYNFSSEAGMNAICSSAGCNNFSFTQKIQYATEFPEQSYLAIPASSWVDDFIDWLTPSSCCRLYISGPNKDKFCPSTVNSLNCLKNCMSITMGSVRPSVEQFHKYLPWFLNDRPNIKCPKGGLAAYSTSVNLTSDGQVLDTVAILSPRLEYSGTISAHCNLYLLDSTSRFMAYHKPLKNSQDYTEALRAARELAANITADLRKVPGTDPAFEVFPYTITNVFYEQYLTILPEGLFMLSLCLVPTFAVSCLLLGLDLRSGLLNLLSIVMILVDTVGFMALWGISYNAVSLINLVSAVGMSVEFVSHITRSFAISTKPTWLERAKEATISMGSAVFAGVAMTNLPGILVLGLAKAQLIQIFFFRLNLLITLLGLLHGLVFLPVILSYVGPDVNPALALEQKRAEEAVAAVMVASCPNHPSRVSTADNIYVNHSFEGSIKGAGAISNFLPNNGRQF

[5] = test system: Caco-2; assay: Inhibition of PTL expression in human Caco-2 cells at 0.1 to 100 uM incubated for 24 hrs by Western blot analysis; assay type: functional, cell-based; settings: dose 0.1-100 µM
[6] = target: T1, NPC1-like intracellular cholesterol transporter 1 (Homo sapiens); assay: Binding affinity to NPC1L1 (unknown origin) at 6.25 to 100 uM by SPR analysis; settings: dose 6.25-100 µM
[7] = target: T1, NPC1-like intracellular cholesterol transporter 1 (Homo sapiens); assay: Non-competitive inhibition of NPC1L1 in human Caco-2 cells assessed as decrease in uptake of cholesterol at 50 uM by HPLC-MS based Lineweaver-Burk double reciprocal plot analysis; assay type: cell-based

| SMILES | inhibition [1] | inhibition [2] | inhibition [3] | inhibition [4] | inhibition [5] | Activity [6] | inhibition [7] |
| --- | --- | --- | --- | --- | --- | --- | --- |
| O=C1[C@H](CC[C@H](O)c2ccc(F)cc2)[C@@H](c2ccc(O)cc2)N1c1ccc(F)cc1 | inactive | inactive | Active | Active | Active | – | – |
| CCCCCCCCCCC[C@@H](C[C@@H]1OC(=O)[C@H]1CCCCCC)OC(=O)[C@H](CC(C)C)NC=O | – | inactive | – | Active | Active | Active | – |
| CCCCCCCCCCC[C@@H](C[C@@H]1OC(=O)[C@H]1CCCCCC)OC(=O)c1cccc(O)c1 | – | – | – | – | – | Active | – |
| CCCCCCCCCCC[C@@H](C[C@@H]1OC(=O)[C@H]1CCCCCC)OC(=O)c1ccc(O)cc1 | inactive | inactive | Active | Active | Active | Active | Active |
